In the supplement of paper PMC5908809:

Assays:
[1] = tested on: normal NK cells expanded with K562-aAPC; assay: percent inhibition of viability; higher = more inhibition; settings: 72 h, IL-2 2.5 ng/mL
Description: (§1)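 Drug sensitivity and resistance testing on K562-aAPC-expanded normal NK cells: 5 concentrations (10-fold steps over a 10,000-fold range), 72 h at 37 °C, viability by CellTiter-Glo normalised to DMSO and benzethonium chloride controls; DSS from the fitted curve.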

[2] = tested on: DERL-7 (IL-2 2.5 ng/mL); assay: as above; settings: 72 h
[3] = tested on: IMC-1 (IL-2 20 ng/mL); assay: as above; settings: 72 h
[4] = tested on: KAI3 (IL-2 2.5 ng/mL); assay: as above; settings: 72 h
[5] = tested on: KHYG-1 (IL-2 2.5 ng/mL); assay: as above; settings: 72 h
[6] = tested on: NK-92 (IL-2 2.5 ng/mL); assay: as above; settings: 72 h
[7] = tested on: NK-YS (IL-2 2.5 ng/mL); assay: as above; settings: 72 h
[8] = tested on: NKL (IL-2 2.5 ng/mL); assay: as above; settings: 72 h
[9] = tested on: SNK-6 (IL-2 2.5 ng/mL); assay: as above; settings: 72 h
[10] = tested on: YT (IL-2 2.5 ng/mL); assay: as above; settings: 72 h
[11] = tested on: normal primary NK cells, pool 1 (3 donors) (IL-2 2.5 ng/mL); assay: as above; settings: 72 h
[12] = tested on: normal primary NK cells, pool 1 (3 donors), resting (IL-2 0 ng/mL); assay: as above; settings: 72 h
[13] = tested on: normal primary NK cells, pool 2 (3 donors) (IL-2 2.5 ng/mL); assay: as above; settings: 72 h
[14] = tested on: normal primary NK cells, pool 3 (3 donors) (IL-2 2.5 ng/mL); assay: as above; settings: 72 h
[15] = tested on: normal NK cells expanded with K562-aAPC; assay: drug sensitivity score (DSS) (DSS units); higher = more sensitive; extreme values may be limits of the assay; settings: 72 h; IL-2 2.5 ng/mL
Description: as §1

[16] = tested on: DERL-7 (IL-2 2.5 ng/mL); assay: as above; settings: 72 h
[17] = tested on: IMC-1 (IL-2 20 ng/mL); assay: as above; settings: 72 h
[18] = tested on: KAI3 (IL-2 2.5 ng/mL); assay: as above; settings: 72 h
[19] = tested on: KHYG-1 (IL-2 2.5 ng/mL); assay: as above; settings: 72 h
[20] = tested on: NK-92 (IL-2 2.5 ng/mL); assay: as above; settings: 72 h
[21] = tested on: NK-YS (IL-2 2.5 ng/mL); assay: as above; settings: 72 h
[22] = tested on: NKL (IL-2 2.5 ng/mL); assay: as above; settings: 72 h
[23] = tested on: SNK-6 (IL-2 2.5 ng/mL); assay: as above; settings: 72 h
[24] = tested on: YT (IL-2 2.5 ng/mL); assay: as above; settings: 72 h
[25] = tested on: normal primary NK cells, pool 1 (3 donors) (IL-2 2.5 ng/mL); assay: as above; settings: 72 h
[26] = tested on: normal primary NK cells, pool 1 (3 donors), resting (IL-2 0 ng/mL); assay: as above; settings: 72 h
[27] = tested on: normal primary NK cells, pool 2 (3 donors) (IL-2 2.5 ng/mL); assay: as above; settings: 72 h
[28] = tested on: normal primary NK cells, pool 3 (3 donors) (IL-2 2.5 ng/mL); assay: as above; settings: 72 h

CCn1c(=O)c(-c2cc[nH]n2)cc2c(C)nc(N)nc21 [Voxtalisib] (max concentration tested 10000 nM)
percent inhibition of viability [%]
Settings | 1 nM | 10 nM | 100 nM | 1000 nM | 10000 nM
[1] | 0.41 | -5.61 | 9.15 | 33.9 | 60.2
[2] | 5.41 | 4.21 | 13.1 | 64 | 90.5
[3] | -10.6 | -2.45 | -10.8 | -9.7 | 16.3
[4] | -4.78 | -4.19 | 6.21 | 42.3 | 75.8
[5] | -9 | -5.41 | -5.59 | 17.8 | 79.4
[6] | -8.65 | 11.8 | 10.3 | 47.6 | 82.8
[7] | -5.07 | 0.15 | 3.01 | 23.8 | 69.5
[8] | -8.64 | -12.9 | -1.2 | 46.7 | 80.6
[9] | -15.8 | -23.8 | -25.5 | -0.25 | 72.2
[10] | -4.53 | -3.54 | 0.98 | 38.7 | 88.6
[11] | -5.05 | 2.34 | 10.6 | 28.2 | 49.9
[12] | -7.13 | 11.3 | 7.69 | 23 | 43.4
[13] | -10.4 | 2.91 | 12.1 | 20.6 | 40.3
[14] | -5.2 | -0.71 | 13.1 | 17.8 | 35.1

Settings | drug sensitivity score
[15] | 7.48
[16] | 13.8
[17] | 0.15
[18] | 9.29
[19] | 7.22
[20] | 10.7
[21] | 7.02
[22] | 10.1
[23] | 3.96
[24] | 9.92
[25] | 6.3
[26] | 5.05
[27] | 4.74
[28] | 4.03

CS(=O)(=O)c1ccc(C(=O)Nc2ccc(Cl)c(-c3ccccn3)c2)c(Cl)c1 [Vismodegib] (max concentration tested 10000 nM)
percent inhibition of viability [%]
Settings | 1 nM | 10 nM | 100 nM | 1000 nM | 10000 nM
[1] | -6.55 | -2.58 | -4.57 | 6.27 | 3.14
[2] | 5.54 | 5.58 | 5.06 | 6.24 | 36.2
[3] | -2.4 | 2.13 | -1.82 | 2.66 | 8.93
[4] | -6.47 | -10.6 | -10.8 | 8.7 | 6.77
[5] | -7.27 | -4.1 | -4.53 | -3.56 | 13.7
[6] | 1.83 | 1.49 | -0.7 | 17.8 | 59.3
[7] | -6.25 | -5.83 | -1.92 | 0.14 | 14.4
[8] | -2.06 | -5.75 | 8.65 | 9.14 | 39.8
[9] | -24.4 | -21.3 | -33.1 | -9.73 | 9.74
[10] | -2.78 | -9.59 | 3.13 | -6.38 | 24.6
[11] | -0.96 | 12.3 | 5.5 | 3.58 | 12.3
[12] | -4.18 | 4.86 | 12.4 | 12.3 | 11.2
[13] | -4.51 | 8.63 | 4.94 | 7.5 | 11.8
[14] | -5.07 | -0.78 | 8.43 | -1.07 | 0.11

Settings | drug sensitivity score
[15] | 0
[16] | 2.77
[17] | 0
[18] | 0
[19] | 0.07
[20] | 5.87
[21] | 0.2
[22] | 3.21
[23] | 0
[24] | 0.65
[25] | 0
[26] | 1.51
[27] | 0.05
[28] | 0

Nc1nc(F)nc2c1ncn2[C@@H]1O[C@H](CO)[C@@H](O)[C@@H]1O [Fludarabine] (max concentration tested 10000 nM)
percent inhibition of viability [%]
Settings | 1 nM | 10 nM | 100 nM | 1000 nM | 10000 nM
[1] | -4.55 | -1.76 | -0.86 | 67.3 | 100
[2] | -6.18 | -6.69 | 2.47 | -9.31 | 74.8
[3] | -8.37 | 2.44 | -0.32 | 0.25 | 53.5
[4] | -10.9 | -7.43 | -11.6 | 10.9 | 97.9
[5] | -3.8 | -1.74 | -3.07 | 5.53 | 82.9
[6] | -5.82 | -19.1 | -10.8 | 24.7 | 101
[7] | -7.11 | -1.12 | -0.69 | 4.05 | 12.8
[8] | -18.8 | -16.5 | -2.27 | 56.9 | 100
[9] | 18.4 | 33.8 | 24.8 | 32.5 | 28
[10] | -2.12 | 0.54 | 0.43 | -2.19 | 4.14
[11] | 6.23 | -6.78 | 8.3 | 45.7 | 93.6
[12] | -2.66 | -18.7 | 10.1 | 65.3 | 89.5
[13] | -15.8 | -12 | 5.13 | 47.7 | 93
[14] | -13.2 | -7.62 | 3.81 | 29.6 | 90.2

Settings | drug sensitivity score
[15] | 13.3
[16] | 3.52
[17] | 2.89
[18] | 7.22
[19] | 5.42
[20] | 9.32
[21] | 0.32
[22] | 12.3
[23] | 7.06
[24] | 0
[25] | 10.6
[26] | 13.5
[27] | 10.8
[28] | 9.07
